{"source": "paper PMC12392461", "about": "“Beyond Estrogenicity: A Comparative Assessment of Bisphenol A and Its Alternatives in In Vitro Assays Questions Safety of Replacements” (Environmental Science & Technology, 2025)", "key": {"[1]": {"experiment": "Stability in PBS (pH 7.4, 37 °C, 48 h)", "experimental": "We tested the stability of all BPA alternatives and BPA in 0.1mM PBS (pH 7.4) for 48h at 37° C except for TMCD prior to the bioassay experiments. The experiment was performed as follows: 500 µL of a 2 mg/L solution of the chemical in PBS was aliquoted into 3 HPLC vials (n=3) and incubated for 48 h at 37 °C. The 2 mg/L solution was prepared by diluting the respective 10 g/L stock solution in a 10 mL glass crimp vial with an aluminum cap. For HPLC analysis, 500 µL acetonitrile was added prior to injection.\nWe have not tested stability of TMCD in aqueous media because we lacked a suitable […]\nFigure S2: Detection of Bisphenol alternatives after 48 h incubation in 0.1mM PBS pH 7.4. Each data point represents the mean percentage with error bars indicating standard error of mean (SEM) of n=3 replicates.\nS2: Cell culture and bioassays\nS2.1: Cell Culturing Conditions\nAll suppliers and sources are given in detail in SI-Excel S3. The bioassay media for the different assays were prepared as follows: Assay medium for ER alpha-UAS-bla GripTite (ERα) and PPAR gamma-UAS-bla 293H (PPARγ) was prepared with 98% Opti-MEM, supplemented with 2% charcoal-stripped FBS, and 100 U/mL penicillin-streptomycin. MitoOxTox and AhR assay medium was comprised of 90% DMEM with GlutaMAX, supplemented with 10% FBS, and 100 U/mL penicillin-streptomycin. Neurotoxicity assay medium consisted of the neurobasal […]"}, "[2]": {"set-up": "method as in Soto et al.", "conditions": "ref Soto et al.; cited from earlier work"}}, "note": "“Also recorded” adds a separate entry of the source. Where two headings read alike, the source gives them in different places.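 Wherever REPBPA is given: published Tox21 results reanalysed with a revised model predicting baseline toxicity.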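 Wherever SRbaseline is given: published Tox21 results reanalysed with a revised model predicting baseline toxicity.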"}
{"smiles": "CC(C)(c1ccc(OCC2CO2)cc1)c1ccc(OCC2CO2)cc1", "note": "(stereo not shown) [BADGE, Bisphenol A diglycidyl ether]", "values": [{"measurement": "stability in phosphate-buffered saline", "setting": "[1]", "value": "unstable in aqueous solution; also recorded: lower parent concentration and potential contributions from hydrolysis products"}]}
{"smiles": "CC(C)(c1cc(Br)c(O)c(Br)c1)c1cc(Br)c(O)c(Br)c1", "note": "[TBBPA, 3,3',5,5'-Tetrabromobisphenol A]", "values": [{"measurement": "REPBPA", "setting": "Tox21 assays", "value": 29.73}, {"measurement": "SRbaseline", "setting": "Tox21 assays", "value": 90.68}, {"measurement": "REPBPA", "setting": "Tox21 assays; ATG_PPARg_TRANS_up, Relative Effect Potency", "value": 3.44}, {"measurement": "SRbaseline", "setting": "Tox21 assays; ATG_PPARg_TRANS_up, Specificity Ratio", "value": 12.11}, {"measurement": "REPBPA", "setting": "Tox21 assays; ATG_hPPARg_XSP1_up, Relative Effect Potency", "value": 2.58}, {"measurement": "SRbaseline", "setting": "Tox21 assays; ATG_hPPARg_XSP1_up, Specificity Ratio", "value": 11.21}, {"measurement": "REPBPA", "setting": "Tox21 assays; ATG_hPPARg_XSP2_up, Relative Effect Potency", "value": 6.45}, {"measurement": "SRbaseline", "setting": "Tox21 assays; ATG_hPPARg_XSP2_up, Specificity Ratio", "value": 28.04}]}
{"smiles": "Cc1cc(Cc2cc(C)c(O)c(C)c2)cc(C)c1O", "note": "[TMBPF, Bis(3,5-dimethyl-4-hydroxyphenyl)methane]", "values": [{"measurement": "estrogenicity in vivo", "setting": "[2]", "value": "nonestrogenic in vivo"}]}
